In US9771369B2, “Compounds and methods for kinase modulation, and indications therefor” (Plexxikon Inc., priority 2014, dated 2017):

These compounds were tested against c-kit mutant D816V (Homo sapiens (Human), UniProt P10721, D816V/DEL694-753) (assay: c-Kit mutant D816V biochemical assay (AlphaScreen kinase activity)).
c-kit mutant D816V, sequence (P10721 other isoform, or with tags, fused parts or gaps D816V/del 694-753): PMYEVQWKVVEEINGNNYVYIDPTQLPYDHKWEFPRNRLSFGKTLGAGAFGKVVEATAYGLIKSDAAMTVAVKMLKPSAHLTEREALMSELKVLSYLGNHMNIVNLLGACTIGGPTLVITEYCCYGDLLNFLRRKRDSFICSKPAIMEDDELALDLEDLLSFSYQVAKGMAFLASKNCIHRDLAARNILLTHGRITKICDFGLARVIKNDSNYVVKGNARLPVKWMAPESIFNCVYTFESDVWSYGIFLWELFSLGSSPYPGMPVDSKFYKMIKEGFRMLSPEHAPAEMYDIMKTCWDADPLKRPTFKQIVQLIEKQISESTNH
Summary of the method: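 AlphaScreen with streptavidin donor and PY30 acceptor beads read phosphotyrosine on biotin-(E4Y)10 substrate (30 nM). Enzyme: E. coli-expressed N-His c-Kit D816V, residues 551-934 lacking kinase insert 694-753. Reaction 30 min at room temperature, 10 μM ATP, 5% DMSO; IC50 fitted over 8 three-fold dilutions.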
Compound `COc1ccc(-c2cc3c(N4CCC(C)(c5nc(C)c(-c6cccc(OC(F)F)c6)[nH]5)CC4)ncnc3[nH]2)cn1` [P-3193, 4-[4-[5-[3-(difluoromethoxy)phenyl]-4-methyl-1H-imidazol-2-yl]-4-methyl-1-piperidyl]-6-(6-methoxy-3-pyridyl)-7H-pyrrolo[2,3-d]pyrimidine] has an IC50 of 0.0001 to 1 µM.
With `COc1ccc(-c2[nH]c(C3(C)CCN(c4ncnc5[nH]c(-c6ccc(NS(C)(=O)=O)cc6)cc45)CC3)nc2C)cc1F` [P-3213, N-[4-[4-[4-[5-(3-fluoro-4-methoxy-phenyl)-4-methyl-1H-imidazol-2-yl]-4-methyl-1-piperidyl]-7H-pyrrolo[2,3-d]pyrimidin-6-yl]phenyl]methanesulfonamide] the IC50 was 0.0001 to 1 µM.
In the case of `Cc1nc(C2(C)CCN(c3ncnc4[nH]nc(C)c34)CC2)[nH]c1-c1ccc2c(c1)OC(F)(F)O2` [P-3203, 4-[4-[5-(2,2-difluoro-1,3-benzodioxol-5-yl)-4-methyl-1H-imidazol-2-yl]-4-methyl-1-piperidyl]-3-methyl-1H-pyrazolo[3,4-d]pyrimidine], the IC50 is reported as 0.0001 to 1 µM.
For `Cc1nc(C2(C)CCN(c3ncnc4[nH]c(-c5ccc(N6CCOCC6)nc5)cc34)CC2)[nH]c1-c1cccc(OC(F)F)c1` [P-3238, 4-[5-[4-[4-[5-[3-(difluoromethoxy)phenyl]-4-methyl-1H-imidazol-2-yl]-4-methyl-1-piperidyl]-7H-pyrrolo[2,3-d]pyrimidin-6-yl]-2-pyridyl]morpholine], the IC50 was 0.0001 to 1 µM.
Work on `CNC(=O)c1ccc(-c2cc3c(N4CCC(C)(c5nc(C)c(-c6ccc(C(F)F)cc6)[nH]5)CC4)ncnc3[nH]2)cn1` [P-3235, 5-[4-[4-[5-[4-(difluoromethyl)phenyl]-4-methyl-1H-imidazol-2-yl]-4-methyl-1-piperidyl]-7H-pyrrolo[2,3-d]pyrimidin-6-yl]-N-methyl-pyridine-2-carboxamide] yielded an IC50 of 0.0001 to 1 µM.
In the case of `COc1ccc(-c2[nH]c(C3(C)CCN(c4ncnc5[nH]c(-c6ccc(C(=O)O)cc6)cc45)CC3)nc2C)cc1F` [P-3199, 4-[4-[4-[5-(3-fluoro-4-methoxy-phenyl)-4-methyl-1H-imidazol-2-yl]-4-methyl-1-piperidyl]-7H-pyrrolo[2,3-d]pyrimidin-6-yl]benzoic acid], the IC50 is reported as 0.0001 to 1 µM.
`Cc1cc2c(N3CCC(C)(c4nc(C)c(-c5ccc(OC(F)F)cc5)[nH]4)CC3)ncnc2[nH]1` [P-3196, 4-[4-[5-[4-(difluoromethoxy)phenyl]-4-methyl-1H-imidazol-2-yl]-4-methyl-1-piperidyl]-6-methyl-7H-pyrrolo[2,3-d]pyrimidine] gave an IC50 of 0.0001 to 1 µM.
With `COc1cc(-c2cc3c(N4CCC(c5nc(C)c(-c6cccc(OC(F)(F)F)c6)[nH]5)CC4)ncnc3[nH]2)ccn1` [P-3014, 6-(2-methoxy-4-pyridyl)-4-[4-[4-methyl-5-[3-(trifluoromethoxy)phenyl]-1H-imidazol-2-yl]-1-piperidyl]-7H-pyrrolo[2,3-d]pyrimidine] the IC50 was 0.0001 to 1 µM.
`Cc1nc(C2(C)CCN(c3ncnc4[nH]c(-c5ccc(C#N)cc5)cc34)CC2)[nH]c1-c1ccc(OC(F)F)cc1` [P-3195, 4-[4-[4-[5-[4-(difluoromethoxy)phenyl]-4-methyl-1H-imidazol-2-yl]-4-methyl-1-piperidyl]-7H-pyrrolo[2,3-d]pyrimidin-6-yl]benzonitrile] gave an IC50 of 0.0001 to 1 µM.
Work on `COc1ccc(-c2[nH]c(C3(C)CCN(c4ncnc5[nH]c(C)cc45)CC3)nc2C)cc1F` [P-3183, 4-[4-[5-(3-fluoro-4-methoxy-phenyl)-4-methyl-1H-imidazol-2-yl]-4-methyl-1-piperidyl]-6-methyl-7H-pyrrolo[2,3-d]pyrimidine] yielded an IC50 of 0.0001 to 1 µM.
Work on `Cc1cc2c(N3CCC(C)(c4nc(C)c(-c5ccc(C(F)F)cc5)[nH]4)CC3)ncnc2[nH]1` [P-3184, 4-[4-[5-[4-(difluoromethyl)phenyl]-4-methyl-1H-imidazol-2-yl]-4-methyl-1-piperidyl]-6-methyl-7H-pyrrolo[2,3-d]pyrimidine] yielded an IC50 of 0.0001 to 1 µM.
For `CNC(=O)c1ccc(-c2cc3c(N4CCC(C)(c5nc(C)c(-c6cccc(OC)c6)[nH]5)CC4)ncnc3[nH]2)cn1` [P-3222, 5-[4-[4-[5-(3-methoxyphenyl)-4-methyl-1H-imidazol-2-yl]-4-methyl-1-piperidyl]-7H-pyrrolo[2,3-d]pyrimidin-6-yl]-N-methyl-pyridine-2-carboxamide], the IC50 was 0.0001 to 1 µM.
Compound `CCOc1ccc(-c2[nH]c(C3(C)CCN(c4ncnc5[nH]c(-c6cnn(C(F)F)c6)cc45)CC3)nc2C)cc1C` [P-3245, 6-[1-(difluoromethyl)pyrazol-4-yl]-4-[4-[5-(4-ethoxy-3-methyl-phenyl)-4-methyl-1H-imidazol-2-yl]-4-methyl-1-piperidyl]-7H-pyrrolo[2,3-d]pyrimidine] has an IC50 of 0.0001 to 1 µM.
`COc1ccc(-c2[nH]c(C3CCN(c4ncnc5[nH]c(-c6ccc(C#N)cc6)cc45)CC3)nc2C)cc1F` [P-3018, 4-[4-[4-[5-(3-fluoro-4-methoxy-phenyl)-4-methyl-1H-imidazol-2-yl]-1-piperidyl]-7H-pyrrolo[2,3-d]pyrimidin-6-yl]benzonitrile] gave an IC50 of 0.0001 to 1 µM.
`CCc1[nH]c(C2CCN(c3ncnc4[nH]c(-c5ccc(C#N)cc5)cc34)CC2)nc1C` [P-3198, 4-[4-[4-(5-ethyl-4-methyl-1H-imidazol-2-yl)-1-piperidyl]-7H-pyrrolo[2,3-d]pyrimidin-6-yl]benzonitrile] gave an IC50 of 0.0001 to 1 µM.
In the case of `CNC(=O)c1ccc(-c2cc3c(N4CCC(C)(c5nc(C)c(-c6ccc(OC)c(F)c6)[nH]5)CC4)ncnc3[nH]2)cn1` [P-3220, 5-[4-[4-[5-(3-fluoro-4-methoxy-phenyl)-4-methyl-1H-imidazol-2-yl]-4-methyl-1-piperidyl]-7H-pyrrolo[2,3-d]pyrimidin-6-yl]-N-methyl-pyridine-2-carboxamide], the IC50 is reported as 0.0001 to 1 µM.
Compound `Cc1nc(C2CCN(c3ncnc4[nH]c(-c5ccc(C#N)cc5)cc34)CC2)[nH]c1-c1cccc(F)c1` [P-3016, 4-[4-[4-[5-(3-fluorophenyl)-4-methyl-1H-imidazol-2-yl]-1-piperidyl]-7H-pyrrolo[2,3-d]pyrimidin-6-yl]benzonitrile] has an IC50 of 0.0001 to 1 µM.
Work on `CCOc1ccc(-c2[nH]c(C3(C)CCN(c4ncnc5[nH]c(-c6ccc(C(N)=O)cc6)cc45)CC3)nc2C)cc1C` [P-3243, 4-[4-[4-[5-(4-ethoxy-3-methyl-phenyl)-4-methyl-1H-imidazol-2-yl]-4-methyl-1-piperidyl]-7H-pyrrolo[2,3-d]pyrimidin-6-yl]benzamide] yielded an IC50 of 0.0001 to 1 µM.
Compound `COc1ccc(-c2[nH]c(C3(C)CCN(c4ncnc5[nH]c(-c6ccc(N7CCOCC7)nc6)cc45)CC3)nc2C)cc1C` [P-3219, 4-[5-[4-[4-[5-(4-methoxy-3-methyl-phenyl)-4-methyl-1H-imidazol-2-yl]-4-methyl-1-piperidyl]-7H-pyrrolo[2,3-d]pyrimidin-6-yl]-2-pyridyl]morpholine] has an IC50 of 0.0001 to 1 µM.
`COc1ccc(-c2nc(C3(C)CCN(c4ncnc5[nH]c(C)cc45)CC3)[nH]c2C)cn1` [P-3186, 4-[4-[4-(6-methoxy-3-pyridyl)-5-methyl-1H-imidazol-2-yl]-4-methyl-1-piperidyl]-6-methyl-7H-pyrrolo[2,3-d]pyrimidine] showed an IC50 of 0.0001 to 1 µM.
Work on `Cc1nc(C2(C)CCN(c3ncnc4[nH]nc(C)c34)CC2)[nH]c1-c1ccc(Cl)cc1` [P-3200, 4-[4-[5-(4-chlorophenyl)-4-methyl-1H-imidazol-2-yl]-4-methyl-1-piperidyl]-3-methyl-1H-pyrazolo[3,4-d]pyrimidine] yielded an IC50 of 0.0001 to 1 µM.
Compound `CCOc1ccc(-c2[nH]c(C3(C)CCN(c4ncnc5[nH]c(-c6ccc(C(=O)NC)nc6)cc45)CC3)nc2C)cc1` [P-3226, 5-[4-[4-[5-(4-ethoxyphenyl)-4-methyl-1H-imidazol-2-yl]-4-methyl-1-piperidyl]-7H-pyrrolo[2,3-d]pyrimidin-6-yl]-N-methyl-pyridine-2-carboxamide] has an IC50 of 0.0001 to 1 µM.
With `CCOc1ccc(-c2[nH]c(C3(C)CCN(c4ncnc5[nH]c(-c6ccc(OC)nc6)cc45)CC3)nc2C)cc1` [P-3171, 4-[4-[5-(4-ethoxyphenyl)-4-methyl-1H-imidazol-2-yl]-4-methyl-1-piperidyl]-6-(6-methoxy-3-pyridyl)-7H-pyrrolo[2,3-d]pyrimidine] the IC50 was 0.0001 to 1 µM.
Work on `CNC(=O)c1ccc(-c2cc3c(N4CCC(C)(c5nc(C)c(-c6ccc(OC(F)F)cc6)[nH]5)CC4)ncnc3[nH]2)cn1` [P-3246, 5-[4-[4-[5-[4-(difluoromethoxy)phenyl]-4-methyl-1H-imidazol-2-yl]-4-methyl-1-piperidyl]-7H-pyrrolo[2,3-d]pyrimidin-6-yl]-N-methyl-pyridine-2-carb oxamide] yielded an IC50 of 0.0001 to 1 µM.
`Cc1nc(C2(C)CCN(c3ncnc4[nH]c(-c5cnn(C(F)F)c5)cc34)CC2)[nH]c1-c1ccc(Cl)cc1` [P-3175, 4-[4-[5-(4-chlorophenyl)-4-methyl-1H-imidazol-2-yl]-4-methyl-1-piperidyl]-6-[1-(difluoromethyl)pyrazol-4-yl]-7H-pyrrolo[2,3-d]pyrimidine] was tested, and the IC50 was 0.0001 to 1 µM.
Work on `COc1ccc(-c2[nH]c(C3(C)CCN(c4ncnc5[nH]c(-c6ccc(OCC(=O)O)cc6)cc45)CC3)nc2C)cc1F` [P-3214, 2-[4-[4-[4-[5-(3-fluoro-4-methoxy-phenyl)-4-methyl-1H-imidazol-2-yl]-4-methyl-1-piperidyl]-7H-pyrrolo[2,3-d]pyrimidin-6-yl]phenoxy]acetic acid] yielded an IC50 of 0.0001 to 1 µM.
`Cc1nc(C2(C)CCN(c3ncnc4[nH]c(-c5ccc(OCC(=O)O)cc5)cc34)CC2)[nH]c1-c1ccc(C(F)F)cc1` [P-3240, 2-[4-[4-[4-[5-[4-(difluoromethyl)phenyl]-4-methyl-1H-imidazol-2-yl]-4-methyl-1-piperidyl]-7H-pyrrolo[2,3-d]pyrimidin-6-yl]phenoxy]acetic acid] showed an IC50 of 0.0001 to 1 µM.
`Fc1ccc(-c2cc3c(N4CCC(c5nnc(-c6ccc(F)cc6)[nH]5)CC4)ncnc3[nH]2)cc1` [P-3206, 6-(4-fluorophenyl)-4-[4-[5-(4-fluorophenyl)-4H-1,2,4-triazol-3-yl]-1-piperidyl]-7H-pyrrolo[2,3-d]pyrimidine] gave an IC50 of 0.0001 to 1 µM.
